Test results from PubChem BioAssay (NCI).
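Interpolation was linear, between the two tested concentrations surrounding the appropriate level; five concentrations were tested over 48 hours in 96-well plates. GI50 marks 50% less growth. TGI: concentration producing complete growth inhibition.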

How the values were obtained:
Assay in all cases: DTP human tumour cell line panel, 48 h
CCRF-CEM leukemia = tested on: CCRF-CEM leukemia
SN12C renal = tested on: SN12C renal
RPMI-8226 leukemia = tested on: RPMI-8226 leukemia
PC-3 prostate = tested on: PC-3 prostate
SR leukemia = tested on: SR leukemia
UACC-257 melanoma = tested on: UACC-257 melanoma
K-562 leukemia = tested on: K-562 leukemia
MDA-MB-231 breast = tested on: MDA-MB-231 breast
SK-MEL-28 melanoma = tested on: SK-MEL-28 melanoma
SK-OV-3 ovarian = tested on: SK-OV-3 ovarian
HS 578T breast = tested on: HS 578T breast
OVCAR-3 ovarian = tested on: OVCAR-3 ovarian
LOX IMVI melanoma = tested on: LOX IMVI melanoma
MDA-MB-435 = tested on: MDA-MB-435
ACHN renal = tested on: ACHN renal
786-0 renal = tested on: 786-0 renal
A549 NSCLC = tested on: A549 NSCLC
OVCAR-5 ovarian = tested on: OVCAR-5 ovarian
NCI-H23 lung = tested on: NCI-H23 lung
OVCAR-4 ovarian = tested on: OVCAR-4 ovarian
DU-145 prostate = tested on: DU-145 prostate
U251 CNS = tested on: U251 CNS
HL-60(TB) leukemia = tested on: HL-60(TB) leukemia
RXF 393 renal = tested on: RXF 393 renal
IGROV1 ovarian = tested on: IGROV1 ovarian
MCF7 breast = tested on: MCF7 breast
M14 melanoma = tested on: M14 melanoma
SF-539 CNS = tested on: SF-539 CNS
NCI-H522 lung = tested on: NCI-H522 lung
MALME-3M melanoma = tested on: MALME-3M melanoma
HT29 colon = tested on: HT29 colon
NCI-H226 lung = tested on: NCI-H226 lung
HCC-2998 colon = tested on: HCC-2998 colon
SNB-19 CNS = tested on: SNB-19 CNS
HCT-116 colon = tested on: HCT-116 colon
MOLT-4 leukemia = tested on: MOLT-4 leukemia
CAKI-1 renal = tested on: CAKI-1 renal
TK-10 renal = tested on: TK-10 renal
SF-268 CNS = tested on: SF-268 CNS
SK-MEL-5 melanoma = tested on: SK-MEL-5 melanoma
UO-31 renal = tested on: UO-31 renal
A498 renal = tested on: A498 renal
BT-549 breast = tested on: BT-549 breast
HOP-62 NSCLC = tested on: HOP-62 NSCLC
KM12 colon = tested on: KM12 colon
UACC-62 melanoma = tested on: UACC-62 melanoma
T-47D breast = tested on: T-47D breast
NCI/ADR-RES ovarian = tested on: NCI/ADR-RES ovarian
OVCAR-8 ovarian = tested on: OVCAR-8 ovarian
SK-MEL-2 melanoma = tested on: SK-MEL-2 melanoma
HCT-15 colon = tested on: HCT-15 colon
NCI-H460 lung = tested on: NCI-H460 lung
COLO 205 colon = tested on: COLO 205 colon
SW-620 colon = tested on: SW-620 colon

For `CN(C)c1ccc(O)c2c1CC1CC3C(N(C)C)C(=O)C(C(N)=O)=C(O)C3(O)C(=O)C1=C2O` (stereo not drawn), the GI50 (CCRF-CEM leukemia) was 19.5 µM, the TGI (CCRF-CEM leukemia) was > 100 µM and the GI50 (SN12C renal) was 18.1 µM. It also gave a TGI (SN12C renal) of 89.9 µM, a GI50 (RPMI-8226 leukemia) of 5.86 µM and a TGI (RPMI-8226 leukemia) of 26.8 µM. The GI50 (PC-3 prostate) was 12.6 µM, the TGI (PC-3 prostate) was 48.7 µM and the GI50 (SR leukemia) was 15.7 µM. For the same molecule, the TGI (SR leukemia) was > 100 µM, the GI50 (UACC-257 melanoma) was 17 µM and the TGI (UACC-257 melanoma) was 52.1 µM. For the same molecule, the GI50 (K-562 leukemia) was 16.8 µM, the TGI (K-562 leukemia) was > 100 µM and the GI50 (MDA-MB-231 breast) was 19.1 µM. The TGI (MDA-MB-231 breast) was 47 µM, the GI50 (SK-MEL-28 melanoma) was 22.1 µM and the TGI (SK-MEL-28 melanoma) was 59.1 µM. For the same molecule, the GI50 (SK-OV-3 ovarian) was 14.6 µM, the TGI (SK-OV-3 ovarian) was 85.4 µM and the GI50 (HS 578T breast) was 14.4 µM. For the same molecule, the TGI (HS 578T breast) was 59.4 µM, the GI50 (OVCAR-3 ovarian) was 12.8 µM and the TGI (OVCAR-3 ovarian) was 39 µM. It also gave a GI50 (LOX IMVI melanoma) of 6.21 µM, a TGI (LOX IMVI melanoma) of 37.3 µM and a GI50 (MDA-MB-435) of 17.9 µM. For the same molecule, the TGI (MDA-MB-435) was > 100 µM, the GI50 (ACHN renal) was 8.4 µM and the TGI (ACHN renal) was > 100 µM. For the same molecule, the GI50 (786-0 renal) was 11.5 µM, the TGI (786-0 renal) was 39.7 µM and the GI50 (A549 NSCLC) was 9.43 µM. For the same molecule, the TGI (A549 NSCLC) was 59.2 µM, the GI50 (OVCAR-5 ovarian) was 15.6 µM and the TGI (OVCAR-5 ovarian) was > 100 µM. It also gave a GI50 (NCI-H23 lung) of 15.2 µM, a TGI (NCI-H23 lung) of 56 µM and a GI50 (OVCAR-4 ovarian) of 24.2 µM. For the same molecule, the TGI (OVCAR-4 ovarian) was > 100 µM, the GI50 (DU-145 prostate) was 13.1 µM and the TGI (DU-145 prostate) was 59.1 µM. The GI50 (U251 CNS) was 6.84 µM, the TGI (U251 CNS) was 31.6 µM and the GI50 (HL-60(TB) leukemia) was 12.7 µM. It also gave a TGI (HL-60(TB) leukemia) of 48.9 µM, a GI50 (RXF 393 renal) of 4.84 µM and a TGI (RXF 393 renal) of 21.6 µM. For the same molecule, the GI50 (IGROV1 ovarian) was 5.78 µM, the TGI (IGROV1 ovarian) was 24.2 µM and the GI50 (MCF7 breast) was 20.2 µM. The TGI (MCF7 breast) was > 100 µM, the GI50 (M14 melanoma) was 11.2 µM and the TGI (M14 melanoma) was > 100 µM. For the same molecule, the GI50 (SF-539 CNS) was 14.6 µM, the TGI (SF-539 CNS) was 35.5 µM and the GI50 (NCI-H522 lung) was 13.6 µM. For the same molecule, the TGI (NCI-H522 lung) was 46 µM, the GI50 (MALME-3M melanoma) was 16.3 µM and the TGI (MALME-3M melanoma) was 41.7 µM. The GI50 (HT29 colon) was 15.4 µM, the TGI (HT29 colon) was 42.9 µM and the GI50 (NCI-H226 lung) was 20.6 µM. The TGI (NCI-H226 lung) was > 100 µM, the GI50 (HCC-2998 colon) was 11.9 µM and the TGI (HCC-2998 colon) was 39.1 µM. For the same molecule, the GI50 (SNB-19 CNS) was 18.8 µM, the TGI (SNB-19 CNS) was > 100 µM and the GI50 (HCT-116 colon) was 11.6 µM. For the same molecule, the TGI (HCT-116 colon) was > 100 µM, the GI50 (MOLT-4 leukemia) was 22.6 µM and the TGI (MOLT-4 leukemia) was 74.1 µM. The GI50 (CAKI-1 renal) was 5.74 µM, the TGI (CAKI-1 renal) was 91.4 µM and the GI50 (TK-10 renal) was 5.66 µM. For the same molecule, the TGI (TK-10 renal) was 35.5 µM, the GI50 (SF-268 CNS) was 18.9 µM and the TGI (SF-268 CNS) was 92.3 µM. The GI50 (SK-MEL-5 melanoma) was 12 µM, the TGI (SK-MEL-5 melanoma) was 28 µM and the GI50 (UO-31 renal) was 7.47 µM. It also gave a TGI (UO-31 renal) of 73 µM, a GI50 (A498 renal) of 6.96 µM and a TGI (A498 renal) of 35.9 µM. The GI50 (BT-549 breast) was 13.6 µM, the TGI (BT-549 breast) was 45 µM and the GI50 (HOP-62 NSCLC) was 19.1 µM. The TGI (HOP-62 NSCLC) was 62.9 µM, the GI50 (KM12 colon) was 13.1 µM and the TGI (KM12 colon) was 32.2 µM. The GI50 (UACC-62 melanoma) was 9.18 µM, the TGI (UACC-62 melanoma) was 22 µM and the GI50 (T-47D breast) was 27.7 µM. The TGI (T-47D breast) was > 100 µM, the GI50 (NCI/ADR-RES ovarian) was 17.3 µM and the TGI (NCI/ADR-RES ovarian) was 73.6 µM. For the same molecule, the GI50 (OVCAR-8 ovarian) was 9.84 µM, the TGI (OVCAR-8 ovarian) was 81.7 µM and the GI50 (SK-MEL-2 melanoma) was 5.66 µM. For the same molecule, the TGI (SK-MEL-2 melanoma) was 22.9 µM, the GI50 (HCT-15 colon) was 5.59 µM and the TGI (HCT-15 colon) was > 100 µM. For the same molecule, the GI50 (NCI-H460 lung) was 10.6 µM, the TGI (NCI-H460 lung) was 29.6 µM and the GI50 (COLO 205 colon) was 13.7 µM. The TGI (COLO 205 colon) was 27 µM, the GI50 (SW-620 colon) was 15.3 µM and the TGI (SW-620 colon) was > 100 µM.
